# According to patent US6197751A, “Thymosin α1 promotes tissue repair, angiogenesis and cell migration” (The United States of America as represented by the …, priority 1998, dated 2001):
# Ends that are not written are not given here.
# B1: PDGF-BB: platelet derived growth factor B form, positive control (protein, UniProt P01127 82-190, looked up)
# Platelet-derived growth …: SLGSLTIAEPAMIAECKTRTEVFEISRRLIDRTNANFLVWPPCVEVQRCSGCCNNRNVQCRPTQVQLRPVQVRKIEIVRKKPIFKKATVTLEDHLACKCETVAAARPVT
# Experiments:
# [1] = system: HT1080 cells (human fibrosarcoma cell line); test: Boyden chamber migration, HT1080 cells; format: cell-based
# Description: (§1) Human umbilical vein endothelial cells (HUVECs) were isolated from freshly delivered cords according to Jaffe et al. (J. Clin. Invest. 52: 2745, 1973) and grown on Nunclon dishes (Nunc, Denmark) in RPMI 1640 (Life Technologies, Gaithersburg, Md.) supplemented with 20% bovine calf serum (Hyclone Laboratories, Logan Utah), 100 U/ml penicillin/streptomycin (Life Technologies, Gaithersburg, Md.), 50 μg/ml gentamycin (Life Technologies, Gaithersburg, Md.), 2.7 μg/ml amphotericin B (fungizone)(Life Technologies, Gaithersburg, Md.), 5 U/ml sodium heparin (Fisher Scientific, Pittsburgh, Pa.) and 200 μg/ml endothelial cell growth supplement (ECGS) (Collaborative Research, Bedford, Mass.). Cells between passage 3 and 5 were used for all experiments. Human coronary artery endothelial cells (HCAECs) were grown on Nunclon dishes in the HUVEC media. Foreskin fibroblasts (Ffs) were grown in DMEM supplemented with 10% fetal bovine serum (Hyclone) on Falcon (Becton Dickinson, N.J.) dishes. HT1080 cells (human fibrosarcoma cell line) were grown in Falcon flasks in DMEM supplemented with 10% fetal bovine serum. Neutrophils were freshly isolated from buffy coats as previously reported (Kibbey et al., J. Cell Phys. 160:185, 1994). Human aortic smooth muscle cells (AOSMCs) were grown in smooth muscle cell media (Clonetics, San Diego, Calif.) on Nunclon dishes.
# (§2) Several cell types were tested to determine if the migratory stimulation observed with Tα1 was specific. […] HUVEC migration assays were carried out in Boyden chambers using 12 ,m pore PVP free filters coated with either a 0.1 mg/ml or 0.05 mg/ml solution of collagen IV as previously reported (Malinda et al., FASEB J. 11:474, 1997). Each condition was assayed in triplicate wells at least three times unless indicated. HCAECs, AOSMCs, FFs, HT1080 cells and neutrophils were cultured or isolated and assayed for migration as previously reported (Malinda et al., FASEB J. 11:474, 1997).
# foreskin fibroblasts = test: Boyden chamber migration, foreskin fibroblasts; format: cell-based; settings: for average number of cells that migrated ± SEM: FF
# Description: as §1, §2
# Neutrophils = test: Boyden chamber migration, neutrophils; format: cell-based; settings: for average number of cells that migrated ± SEM: Neutrophils
# Description: as §1, §2
# Monocytes = test: Boyden chamber migration, monocytes; format: cell-based; settings: for average number of cells that migrated ± SEM: Monocytes
# Description: [The procedure below names another cell line; the source lists this cell line under the same test.] as §2
# HUVECs = test: Tube formation assay on Matrigel; format: cell-based, human
# Description: Migration and differentiation during angiogenesis can be studied in vitro using Matrigel, a basement membrane matrix on which HUVECs undergo capillary-like tube formation (Grant et al., J. Cell. Physiol. 153: 614, 1992; Kubota et al., J. Cell Biol. 107: 1589, 1988). The tube formation assay was performed according to Grant et al. (J. Cell. Physiol. 153:614, 1992) with the following modifications. Twenty-four well Nunclon plates were coated with 320 μl of Matrigel (10 mg/ml) and incubated at 37° C. for 30 min to promote gelling. 30,000 HUVECs were resuspended in growth media and added to each well with 1, 10, 100 and 1000 ng of synthetic Tα1, 20 and 200 μg/ml ECGS (a bovine brain extract that contains aFGF and bFGF and acts as a positive control) or media alone. The final serum concentrations were 10% or 5%. After 18 h, plates were fixed with Diff-Quik (Baxter Healthcare Corporation, McGraw Park, Ill.) and the length of the tubes was measured using an Olympus CK2 microscope with a 2× objective connected to a Javelin CCTV camera with a 3.3× coupler and NIH Image 1.57 software. Three random measurements of each of four wells at each culture condition were measured. Each experiment was repeated at least three times.
# [2] = system: human aortic smooth muscle cells; test: Boyden chamber migration, aortic smooth muscle cells; format: cell-based; settings: for average number of cells that migrated ± SEM: AOSMC
# Description: as §1, §2
# HUVEC [3] = test: HUVEC migration in Boyden chamber assays; format: cell-based, human
# Description: as §2
# [4] = system: human coronary artery endothelial cells; test: Boyden chamber migration, coronary artery endothelial cells; format: cell-based; settings: for average number of cells that migrated ± SEM: HCAEC
# Description: as §1, §2
# rats = test: Full thickness punch biopsy wound healing; format: in vivo; settings: for reepithelization of the wound / collagen production (Masson's trichrome) / histology of dermis near dermal and epidermal junction: 8 day punch wounds; for wound healing compared to untreated wounds: rats
# Description: Six full thickness 8 mm punch biopsy wounds were made on the dorsal surface of rats as previously reported (Bhartiya et al., J. Cell. Physiol. 150:312, 1992; Sihhu et al., J. Cell. Physiol. 169:108, 1996) and Tα1 was given topically at the time of wounding (5 μg in 50 μl) and again after 48 hr. Controls for the topical treatment received identical amounts of saline at the time of wounding and at 48 hr. Three rats in each group also received intraperitoneal injections at the time of wounding (60 μg in 300 μl) and again every other day. Controls for these animals received identical amounts of saline i.p. on the same injection schedule. At days 8 and 9 post-wounding, tissue was collected and fixed in 10% buffered formalin (i.p. n=18 samples; topical n=9 samples). The samples were sectioned and stained with H&E and Masson's Trichrome (American Histolabs, Gaithersburg, Md.).
# HUVEC [5] = test: In vitro "scratch" wound closure assay; format: cell-based, human; settings: media alone 1%
# Description: During angiogenesis the cells may be presented with a constant level of Tα1. The "scratch" wound closure assay was used to assess the potential effects of constant doses of Tα1 on cell migration. Confluent monolayers were "scratch" wounded using the tip of a universal blue pipette tip and rinsed with PBS. Tα1 (1, 10, 100, and 1000 ng/ml) or ECGS (200 μg/ml) was added to the wells in fresh media lacking ECGS but containing 10 mM thymidine to inhibit cell proliferation (Malinda et al., FASEB J. 11: 474, 1997). Antibody inhibition experiments were carried out as described above by wounding the cell monolayer and then adding either anti-Tα1 polyclonal antibody (1/25, 1/50 dilution) or pre-immune serum (1/25 dilution), or fresh media to the plate.
# C57Bl/6N female mice = test: Subcutaneous Matrigel plug assay; format: in vivo
# Description: Since Tα1 enhanced HUVEC migration in vitro, experiments were performed to determine if Tα1 promoted cell migration and vessel formation in vivo. Endothelial cells invade and form vessels in Matrigel plugs containing angiogenic factors (Kibbey et al., J. Cell Phys. 160:185, 1994; Passaniti et al., Lab. Invest. 67: 519, 1992). […] Three random fields were collected and analyzed per plug in each of three experiments. […] Cells migrate into the plug from the area closest to the skin forming vessels (FIG. 5). Plugs containing Tα1 (FIGS. 5C and 5D) show many more cells than in the Matrigel alone (FIG. 5A). Cell morphology was similar to those in plugs containing 10 ng/ml of the positive control ECGS (FIG. 5B).
molecule,measurement,setting,value
"laminin [LN, reference compound]",average number of cells that migrated ± SEM,"[1]; HT1080, positive control 1 ug/ml",661.2 ± 37
same,average number of cells that migrated ± SEM,"[1]; HT1080, positive control 5 ug/ml",1136 ± 70.3
"basic fibroblast growth factor [bFGF, reference compound]",average number of cells that migrated ± SEM,foreskin fibroblasts; positive control 10 ng/ml,12.3 ± 0.3
FMLP [reference compound],average number of cells that migrated ± SEM,Neutrophils; positive control 10^-7 M,1404.7 ± 58.2
same,average number of cells that migrated ± SEM,Monocytes; positive control 10^-7 M,74 ± 2.1
"thymosin α1 (SDAAVDTSSEITTKDLKEKKEVVEEAEN; not fully specified; ends and bridges not checked; UniProt P06454 2-29, looked up) [Tα1, 28 amino acid peptide which results from the cleavage of the N-terminal region of prothymosin α1]",tube formation,"HUVECs; 1 or 10 ng/ml Tα1, 5% serum",did not form tubes
same,tube formation,"HUVECs; 100 and 1000 ng/ml Tα1, 5% serum",formed highly organized tubes
same,tube formation vs control cells,"HUVECs; 100 or 1000 ng/ml Tα1, 10% serum",formed more tubes than control cells
same,average length of tubes,"HUVECs; 100 or 1000 ng/ml Tα1, 10% serum, 18 h, media alone 208 μm",316-324 μm
same,average number of cells that migrated ± SEM,[2]; Thymosin α1 1 ng/ml,1 ± 0.3
same,average number of cells that migrated ± SEM,[2]; Thymosin α1 10 ng/ml,1 ± 0.4
same,average number of cells that migrated ± SEM,[2]; Thymosin α1 100 ng/ml,0.5 ± 0.5
same,average number of cells that migrated ± SEM,[2]; Thymosin α1 1000 ng/ml,1 ± 0.4
same,migration toward Tα1,[2]; human aortic smooth muscle cells,did not demonstrate any significant migration
same,increase in HUVEC migration,"HUVEC [3]; Tα1 in the lower wells, filters coated with collagen IV",3-6 fold
same,"checkerboard assay, chemoattraction vs chemokinesis",HUVEC [3]; increasing Tα1 in lower well vs in upper and lower wells,More cells migrated along the concentration gradient of Tα1 in the lower well
same,average number of cells that migrated ± SEM,Neutrophils; Thymosin α1 1 ng/ml,138.7
same,average number of cells that migrated ± SEM,Neutrophils; Thymosin α1 10 ng/ml,138.7 ± 20
same,average number of cells that migrated ± SEM,Neutrophils; Thymosin α1 100 ng/ml,149.3 ± 13.5
same,average number of cells that migrated ± SEM,Neutrophils; Thymosin α1 1000 ng/ml,149.3 ± 27
same,migration toward Tα1,Neutrophils; neutrophils,did not demonstrate any significant migration
same,average number of cells that migrated ± SEM,"[1]; HT1080, Thymosin α1 1 ng/ml",2.4 ± 0.8
same,average number of cells that migrated ± SEM,"[1]; HT1080, Thymosin α1 10 ng/ml",1.8 ± 0.4
same,average number of cells that migrated ± SEM,"[1]; HT1080, Thymosin α1 100 ng/ml",1.3 ± 0.7
same,average number of cells that migrated ± SEM,"[1]; HT1080, Thymosin α1 1000 ng/ml",0.9 ± 0.4
same,migration toward Tα1,[1]; HT1080 fibrosarcoma cells,did not demonstrate any significant migration
same,increase in migration over media alone,[4]; 1000 ng of Tα1,2 fold
same,migration,[4]; 1-100 ng doses,Significant migration
same,average number of cells that migrated ± SEM,[4]; Thymosin α1 1 ng/ml,14 ± 0.3
same,average number of cells that migrated ± SEM,[4]; Thymosin α1 10 ng/ml,16 ± 0.5
same,average number of cells that migrated ± SEM,[4]; Thymosin α1 100 ng/ml,18 ± 0.4
same,average number of cells that migrated ± SEM,[4]; Thymosin α1 1000 ng/ml,21 ± 0.4
same,Monocyte migration,Monocytes; 100 ng/ml,appeared to be inhibited
same,Monocyte migration,Monocytes; 1000 ng/ml of Tα1,increased
same,average number of cells that migrated ± SEM,Monocytes; Thymosin α1 100 ng/ml,20 ± 5.4
same,average number of cells that migrated ± SEM,Monocytes; Thymosin α1 1000 ng/ml,80 ± 7.6
same,reepithelization of the wound,rats; intraperitoneal on alternate days 60 μg/300 μl,Complete reepithelization
same,wound healing compared to untreated wounds,"rats; intraperitoneal, 60 μg in 300 μl every other day",significantly accelerated wound healing
same,collagen production (Masson's trichrome),rats; intraperitoneal,enhanced collagen production
same,histology of dermis near dermal and epidermal junction,rats; intraperitoneal,capillary ingrowth in granulation tissue and hypercellular dermis
same,reepithelization of the wound,rats; topical 5 μg/50 μl,complete reepithelization of the wound with 2-3 layers of thick epidermis
same,wound healing compared to untreated wounds,"rats; topical, 5 μg in 50 μl at wounding and after 48 hr",significantly accelerated wound healing
same,collagen production (Masson's trichrome),rats; topical,enhanced collagen production
same,histology of dermis near dermal and epidermal junction,rats; topical,capillary ingrowth in granulation tissue and hypercellular dermis
same,wound closure,"HUVEC [5]; 100 ng/ml Tα1, 2 h",7%
same,wound closure,"HUVEC [5]; 1000 ng/ml Tα1, 2 h after wounding",14%
same,average number of cells that migrated ± SEM,foreskin fibroblasts; Thymosin α1 1 ng/ml,5 ± 0.4
same,average number of cells that migrated ± SEM,foreskin fibroblasts; Thymosin α1 10 ng/ml,5 ± 0.4
same,average number of cells that migrated ± SEM,foreskin fibroblasts; Thymosin α1 100 ng/ml,4.8 ± 0.7
same,average number of cells that migrated ± SEM,foreskin fibroblasts; Thymosin α1 1000 ng/ml,5.2 ± 0.5
same,migration toward Tα1,foreskin fibroblasts; Foreskin fibroblasts,did not demonstrate any significant migration
same,cell migration into plugs,C57Bl/6N female mice; 1 μg/ml and 500 μg/ml,a decrease in migration was observed
same,cell migration and angiogenesis in vivo vs Matrigel alone,C57Bl/6N female mice; 5 μg/ml of Tα1,always significantly higher than Matrigel alone
B1,average number of cells that migrated ± SEM,[2]; positive control 10 ng/ml,36 ± 4.5
